Laboratory results as given in patent US9920063B2, “Melampomagnolide B derivatives” (Board of Trustees of the University of Arkansas, priority 2013, dated 2018).
Entries after “also recorded” stand apart in the source; their conditions may differ.

What follows are compounds tested on panel of 60 human cancer cell lines (assay: Screen against a panel of 60 human tumor cell lines (single dose and five dose), panel and sub-panel statements). Details: all human tumor cell lines, with the exception of the leukemia cell line subpanel.
Assay type: cell-based

Row | Structure (SMILES) | Growth inhibition compared to PTL (1) and DMAPT (2)
1 | C=C1C(=O)O[C@H]2[C@H]1CC/C(COC(=O)N1CCC(F)(F)CC1)=C\CC[C@@]1(C)O[C@@H]21 [Compound 6a, ((1aR,7aS,10aS,10bS,E)-1a-methyl-8-methylene-9-oxo-1a,2,3,6,7,7a,8,9,10a,10b-decahydrooxireno[2′,3′:9,10]cyclodeca[1,2-b]furan-5-yl)methyl-4,4-difluoropiperidine-1-carboxylate] | generally exhibited improved growth inhibition against all human tumor cell lines when compared to PTL (1) and DMAPT (2)
2 | C=C1C(=O)O[C@H]2[C@H]1CC/C(COC(=O)Nc1n[nH]c(SC)n1)=C\CC[C@@]1(C)O[C@@H]21 [Compound 6e, ((1aR,7aS,10aS,10bS,E)-1a-methyl-8-methylene-9-oxo-1a,2,3,6,7,7a,8,9,10a,10b-decahydrooxireno[2′,3′:9,10]cyclodeca[1,2-b]furan-5-yl)methyl-(5-(methylthio)-1H-1,2,4-triazol-3-yl)carbamate] | generally exhibited improved growth inhibition against all human tumor cell lines when compared to PTL (1) and DMAPT (2)

Same assay, conditions: single concentration 10^−5 M; more than 60% growth inhibition in at least eight cell lines of the panel

Row | Structure (SMILES) | Outcome of initial single dose screening
3 | C=C1C(=O)O[C@H]2[C@H]1CC/C(COC(=O)c1cc3cc(OC)ccc3[nH]1)=C\CC[C@@]1(C)O[C@@H]21 [BS-2-01] | selected for five dose screening
4 | C=C1C(=O)OC2C1CCC(COC(=O)c1cc3cc(Cl)ccc3[nH]1)=CCCC1(C)OC21 (stereo not drawn) [BS-2-30] | selected for five dose screening
5 | C=C1C(=O)OC2C1CCC(COC(=O)c1cc3ccccc3s1)=CCCC1(C)OC21 (stereo not drawn) [BS-2-65] | selected for five dose screening
6 | C=C1C(=O)OC2C1CCC(COC(=O)c1cc3cc(F)ccc3[nH]1)=CCCC1(C)OC21 (stereo not drawn) [BS-2-68] | selected for five dose screening
7 | C=C1C(=O)O[C@H]2[C@H]1CC/C(COC(=O)NCCN1CCCC1)=C\CC[C@@]1(C)O[C@@H]21 [Compound 6b, ((1aR,7aS,10aS,10bS,E)-1a-methyl-8-methylene-9-oxo-1a,2,3,6,7,7a,8,9,10a,10b-decahydrooxireno[2′,3′:9,10]cyclodeca[1,2-b]furan-5-yl)methyl-(2-(pyrrolidin-1-yl)ethyl)carbamate] | selected for a five-dose screening
8 | C=C1C(=O)O[C@H]2[C@H]1CC/C(COC(=O)NCCc1ccccn1)=C\CC[C@@]1(C)O[C@@H]21 [Compound 6c, ((1aR,7aS,10aS,10bS,E)-1a-methyl-8-methylene-9-oxo-1a,2,3,6,7,7a,8,9,10a,10b-decahydrooxireno[2′,3′:9,10]cyclodeca[1,2-b]furan-5-yl)methyl-(2-(pyridin-2-yl)ethyl)carbamate] | selected for a five-dose screening
9 | C=C1C(=O)O[C@H]2[C@H]1CC/C(COC(=O)NCCN1CCOCC1)=C\CC[C@@]1(C)O[C@@H]21 [Compound 6d, ((1aR,7aS,10aS,10bS,E)-1a-methyl-8-methylene-9-oxo-1a,2,3,6,7,7a,8,9,10a,10b-decahydrooxireno[2′,3′:9,10]cyclodeca[1,2-b]furan-5-yl)-methyl(2-morpholinoethyl) carbamate] | selected for a five-dose screening
10 | C=C1C(=O)O[C@H]2[C@H]1CC/C(COC(=O)Nc1n[nH]c(SC)n1)=C\CC[C@@]1(C)O[C@@H]21 [Compound 6e, ((1aR,7aS,10aS,10bS,E)-1a-methyl-8-methylene-9-oxo-1a,2,3,6,7,7a,8,9,10a,10b-decahydrooxireno[2′,3′:9,10]cyclodeca[1,2-b]furan-5-yl)methyl-(5-(methylthio)-1H-1,2,4-triazol-3-yl)carbamate] | selected for a five-dose screening
11 | C=C1C(=O)O[C@H]2[C@H]1CC/C(COC(=O)NCCN1CCCCC1)=C\CC[C@@]1(C)O[C@@H]21 [JVM 2-13] | selected for a five-dose screening
12 | C=C1C(=O)O[C@H]2[C@H]1CC/C(COC(=O)OCCCN1CCCCC1)=C\CC[C@@]1(C)O[C@@H]21 [JVM 2-26] | selected for a five-dose screening
13 | C=C1C(=O)O[C@H]2[C@H]1CC/C(COC(=O)NCCCCCCO)=C\CC[C@@]1(C)O[C@@H]21 [JVM 2-31] | selected for a five-dose screening
14 | C=C1C(=O)O[C@H]2[C@H]1CC/C(COC(=O)OCCN(C)C)=C\CC[C@@]1(C)O[C@@H]21 [JVM 2-35] | selected for a five-dose screening
15 | C=C1C(=O)O[C@H]2[C@H]1CC/C(COC(=O)OC)=C\CC[C@@]1(C)O[C@@H]21 [JVM 2-40] | selected for a five-dose screening
16 | C=C1C(=O)O[C@H]2[C@H]1CC/C(COC(=O)N1CCN(C)CC1)=C\CC[C@@]1(C)O[C@@H]21 [JVM 2-44] | selected for a five-dose screening
17 | C=C1C(=O)O[C@H]2[C@H]1CC/C(COC(=O)NCCO)=C\CC[C@@]1(C)O[C@@H]21 [JVM 2-50] | selected for a five-dose screening
18 | C=C1C(=O)O[C@H]2[C@H]1CC/C(COC(=O)NC)=C\CC[C@@]1(C)O[C@@H]21 [JVM 2-57] | selected for a five-dose screening
19 | C=C1C(=O)O[C@H]2[C@H]1CC/C(COC(=O)N1CCC(F)(F)CC1)=C\CC[C@@]1(C)O[C@@H]21 [JVM 2-66] | selected for a five-dose screening
20 | C=C1C(=O)O[C@H]2[C@H]1CC/C(COC(=O)CCC(=O)N1CCC(C)CC1)=C\CC[C@@]1(C)O[C@@H]21 [JVM 2-70] | selected for a five-dose screening
21 | C=C1C(=O)O[C@H]2[C@H]1CC/C(COC(=S)n1ccnc1)=C\CC[C@@]1(C)O[C@@H]21 [JVM 66] | selected for a five-dose screening
22 | C=C1C(=O)O[C@H]2[C@H]1CC/C(COC(=O)CCC(=O)NCc1ccc(Cl)nc1)=C\CC[C@@]1(C)O[C@@H]21 [JVM 96] | selected for a five-dose screening

Same assay, conditions: single concentration of 10^−5 M

Row | Structure (SMILES) | Activity in NCI single dose screen
23 | C=C1C(=O)O[C@H]2[C@H]1CC/C(CNC(=O)Cc1c[nH]c3ccccc13)=C\CC[C@@]1(C)O[C@@H]21 [JVM 4-14] | potent activity against all leukemia lines tested as well as some NSCLC, colon cancer, melanoma, renal cancer and breast cancer cell lines; also recorded: moderate activity against CNS cancer and ovarian cancer
24 | C=C1C(=O)O[C@H]2[C@H]1CC/C(CNC(=O)c1cc3ccccc3[nH]1)=C\CC[C@@]1(C)O[C@@H]21 [JVM 4-19] | did not show potent activity against leukemia cell lines; also recorded: potent activity against the majority of colon cancer, melanoma, renal cancer, prostate cancer and breast cancer cell lines tested; also recorded: moderate activity against NSCLC, CNS cancer and ovarian cancer cell lines

Same assay, conditions: sub-panel of human leukemia cells

Row | Structure (SMILES) | Antileukemic activity compared to parent compound MMB
25 | C=C1C(=O)O[C@H]2[C@H]1CC/C(COC(=O)N1CCC(F)(F)CC1)=C\CC[C@@]1(C)O[C@@H]21 [Compound 6a, ((1aR,7aS,10aS,10bS,E)-1a-methyl-8-methylene-9-oxo-1a,2,3,6,7,7a,8,9,10a,10b-decahydrooxireno[2′,3′:9,10]cyclodeca[1,2-b]furan-5-yl)methyl-4,4-difluoropiperidine-1-carboxylate] | more potent than the parent compound
26 | C=C1C(=O)O[C@H]2[C@H]1CC/C(COC(=O)Nc1n[nH]c(SC)n1)=C\CC[C@@]1(C)O[C@@H]21 [Compound 6e, ((1aR,7aS,10aS,10bS,E)-1a-methyl-8-methylene-9-oxo-1a,2,3,6,7,7a,8,9,10a,10b-decahydrooxireno[2′,3′:9,10]cyclodeca[1,2-b]furan-5-yl)methyl-(5-(methylthio)-1H-1,2,4-triazol-3-yl)carbamate] | more potent than the parent compound

These compounds were tested on M9 ENL cells (assay: cells). Details: 24 h.
Procedure: Carbamate and carbonate derivatives of MMB were also screened for activity against M9 ENL cells at concentrations of 5, 10 and 20 μM (FIG. 10). […] Additionally, succinic amide derivatives of MMB were screened for activity against M9 ENL cells at concentrations of 5, 10 and 20 μM (FIG. 11).
Ester and amide derivatives of melampomagnolide B were screened for anti-leukemic activity against M9ENL AML cell lines (FIG. 12; FIG. 14; FIG. 15; FIG. 16). For each compound, in vitro cell culture studies were performed in which a range of concentrations (0.25-20 μM) was tested for cytotoxicity against leukemia cell lines, primary leukemia specimens and normal bone marrow controls.

Row | Structure (SMILES) | EC50
27 | C=C1C(=O)O[C@H]2[C@H]1CC/C(COC(=O)c1cc(OC)c(OC)c(OC)c1)=C\CC[C@@]1(C)O[C@@H]21 [JVM 3-22] | 4.7 µM
28 | C=C1C(=O)O[C@H]2[C@H]1CC/C(COC(=O)c1ccc(Br)cc1)=C\CC[C@@]1(C)O[C@@H]21 [JVM 3-30] | 3.3 µM
29 | C=C1C(=O)O[C@H]2[C@H]1CC/C(COC(=O)c1ccc3ccccc3c1)=C\CC[C@@]1(C)O[C@@H]21 [JVM 3-36, ((1aR,7aS,10aS,10bS,E)-1a-methyl-8-methylene-9-oxo-1a,2,3,6,7,7a,8,9,10a,10b-decahydrooxireno[2′,3′:9,10]cycodeca[1,2-b]furan-5-yl)methyl 2-naphthoate] | 1.7 µM
30 | C=C1C(=O)O[C@H]2[C@H]1CC/C(COC(=O)c1cccc3ccccc13)=C\CC[C@@]1(C)O[C@@H]21 [JVM 3-38] | 2.9 µM
31 | C=C1C(=O)O[C@H]2[C@H]1CC/C(COC(=O)c1ccc(C#N)cc1)=C\CC[C@@]1(C)O[C@@H]21 [JVM 3-39] | 11 µM
32 | C=C1C(=O)O[C@H]2[C@H]1CC/C(COC(=O)c1ccc(Cl)cc1)=C\CC[C@@]1(C)O[C@@H]21 [JVM 3-41] | 13 µM
33 | C=C1C(=O)O[C@H]2[C@H]1CC/C(COC(=O)c1ccc(OC)cc1OC)=C\CC[C@@]1(C)O[C@@H]21 [JVM 3-44] | 3.5 µM
34 | C=C1C(=O)O[C@H]2[C@H]1CC/C(C(=O)N1CCN(C)CC1)=C\CC[C@@]1(C)O[C@@H]21 [JVM 3-46] | 28 µM
35 | C=C1C(=O)O[C@H]2[C@H]1CC/C(C(=O)N1CCC(F)(F)CC1)=C\CC[C@@]1(C)O[C@@H]21 [JVM 3-50] | 3.5 µM
36 | C=C1C(=O)O[C@H]2[C@H]1CC/C(C(=O)N1CCC(C)CC1)=C\CC[C@@]1(C)O[C@@H]21 [JVM 3-51] | 12 µM
37 | C=C1C(=O)O[C@H]2[C@H]1CC/C(C(=O)N1CCCCC1)=C\CC[C@@]1(C)O[C@@H]21 [JVM 3-52] | 8.3 µM
38 | C=C1C(=O)O[C@H]2[C@H]1CC/C(C(=O)Nc1n[nH]c(SC)n1)=C\CC[C@@]1(C)O[C@@H]21 [JVM 3-53, (1aR,7aS,10aS,10bS,E)-1a-methyl-8-methylene-N-(5-(methylthio)-1H-1,2,4-triazol-3-yl)-9-oxo-1a,2,3,6,7,7a,8,9,10a,10b-decahydrooxireno[2′,3′:9,10]cyclodeca[1,2-b]furan-5-carboxamide] | 0.016 µM
39 | C=C1C(=O)O[C@H]2[C@H]1CC/C(C(=O)n1ccnc1C)=C\CC[C@@]1(C)O[C@@H]21 [JVM 3-57] | 5.9 µM

Each compound was assayed on M9 ENL cells (assay: not given). Details: M9ENL AML cell lines; 24 hours of drug exposure.

Row | Structure (SMILES) | EC50
40 | C=C1C(=O)O[C@H]2[C@H]1CC/C(COC(=O)c1cc3cc(OC)ccc3[nH]1)=C\CC[C@@]1(C)O[C@@H]21 [BS-2-01] | 2.2 µM
41 | C=C1C(=O)O[C@H]2[C@H]1CC/C(COC(=O)c1ccc(Cl)nc1)=C\CC[C@@]1(C)O[C@@H]21 [JVM 340] | 11 µM

Same assay, conditions: M9 ENL cells; lowest concentration tested (5, 10 and 20 μM tested)

Row | Structure (SMILES) | Reduction of cell viability
42 | C=C1C(=O)O[C@H]2[C@H]1CC/C(COC(=O)OCCN1CCCC1)=C\CC[C@@]1(C)O[C@@H]21 [JVM 2-59] | greater than 50%
43 | C=C1C(=O)O[C@H]2[C@H]1CC/C(COC(=O)OCCN1CCOCC1)=C\CC[C@@]1(C)O[C@@H]21 [JVM 2-60] | greater than 50%
44 | C=C1C(=O)O[C@H]2[C@H]1CC/C(COC(=O)N1CCC(F)(F)CC1)=C\CC[C@@]1(C)O[C@@H]21 [JVM 2-66] | greater than 50%
45 | C=C1C(=O)O[C@H]2[C@H]1CC/C(COC(=O)CCC(=O)N1CCC(C)CC1)=C\CC[C@@]1(C)O[C@@H]21 [JVM 2-70] | greater than 50%

Same assay, conditions: M9 cell lines

Row | Structure (SMILES) | Fold greater cytotoxicity than PTL
46 | C=C1C(=O)O[C@H]2[C@H]1CC/C(COC(=O)c1ccc3ccccc3c1)=C\CC[C@@]1(C)O[C@@H]21 [JVM 3-36, ((1aR,7aS,10aS,10bS,E)-1a-methyl-8-methylene-9-oxo-1a,2,3,6,7,7a,8,9,10a,10b-decahydrooxireno[2′,3′:9,10]cycodeca[1,2-b]furan-5-yl)methyl 2-naphthoate] | 3 fold
47 | C=C1C(=O)O[C@H]2[C@H]1CC/C(C(=O)Nc1n[nH]c(SC)n1)=C\CC[C@@]1(C)O[C@@H]21 [JVM 3-53, (1aR,7aS,10aS,10bS,E)-1a-methyl-8-methylene-N-(5-(methylthio)-1H-1,2,4-triazol-3-yl)-9-oxo-1a,2,3,6,7,7a,8,9,10a,10b-decahydrooxireno[2′,3′:9,10]cyclodeca[1,2-b]furan-5-carboxamide] | ~30 fold

What follows are compounds tested on AML 052308 cells (assay: Antileukemic activity against AML 052308 cells in culture). Details: not given.

Row | Structure (SMILES) | EC50
48 | C=C1C(=O)OC2C1CC/C(CO)=C\CCC1(C)OC21 (stereo not drawn) [MMB, Melampomagnolide B] | 16 µM
